How the values were obtained:
[1] = molecular target: T1, α1β2 GABAAR (Rattus norvegicus, UniProt P62813+P63138); test: whole-cell patch clamp, inhibition of GABA-evoked current; format: cell-based
T1 construct: gene Gabra1; full-length subunits in pcDNA3.1, co-transfected in HEK293T cells; GFP as separate marker; pentamer

[2] = molecular target: T2, α5β2 GABAAR (Rattus norvegicus, UniProt P19969+P63138); test: as above; format: cell-based
T2 construct: gene Gabra5; full-length subunits in pcDNA3.1, co-transfected in HEK293T cells; GFP as separate marker; pentamer
T2 sequence (P19969 26-464): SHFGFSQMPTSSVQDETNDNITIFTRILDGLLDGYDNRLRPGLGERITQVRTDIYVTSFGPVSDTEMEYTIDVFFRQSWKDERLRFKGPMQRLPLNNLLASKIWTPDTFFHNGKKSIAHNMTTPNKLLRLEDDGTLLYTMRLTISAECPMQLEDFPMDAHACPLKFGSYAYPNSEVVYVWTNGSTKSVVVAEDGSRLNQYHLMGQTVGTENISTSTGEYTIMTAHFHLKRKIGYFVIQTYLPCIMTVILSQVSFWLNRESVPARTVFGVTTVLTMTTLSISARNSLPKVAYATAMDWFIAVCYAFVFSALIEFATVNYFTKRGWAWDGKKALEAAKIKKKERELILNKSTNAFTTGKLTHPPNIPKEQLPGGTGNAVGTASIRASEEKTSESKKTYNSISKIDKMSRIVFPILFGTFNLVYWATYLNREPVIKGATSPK
T2 sequence (P63138 26-474): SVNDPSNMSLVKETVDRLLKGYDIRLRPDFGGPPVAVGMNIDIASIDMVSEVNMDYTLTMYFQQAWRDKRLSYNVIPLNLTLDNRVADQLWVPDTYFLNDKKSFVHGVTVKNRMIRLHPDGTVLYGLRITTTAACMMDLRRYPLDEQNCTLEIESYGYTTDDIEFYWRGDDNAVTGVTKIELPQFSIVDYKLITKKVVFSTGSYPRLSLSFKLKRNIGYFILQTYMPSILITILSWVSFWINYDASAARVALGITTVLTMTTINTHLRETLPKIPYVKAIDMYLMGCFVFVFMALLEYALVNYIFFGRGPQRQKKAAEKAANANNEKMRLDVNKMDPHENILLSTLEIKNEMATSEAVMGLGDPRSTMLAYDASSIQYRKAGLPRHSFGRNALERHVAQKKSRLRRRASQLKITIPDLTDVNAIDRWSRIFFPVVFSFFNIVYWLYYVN

T1 sequence (P62813 28-455): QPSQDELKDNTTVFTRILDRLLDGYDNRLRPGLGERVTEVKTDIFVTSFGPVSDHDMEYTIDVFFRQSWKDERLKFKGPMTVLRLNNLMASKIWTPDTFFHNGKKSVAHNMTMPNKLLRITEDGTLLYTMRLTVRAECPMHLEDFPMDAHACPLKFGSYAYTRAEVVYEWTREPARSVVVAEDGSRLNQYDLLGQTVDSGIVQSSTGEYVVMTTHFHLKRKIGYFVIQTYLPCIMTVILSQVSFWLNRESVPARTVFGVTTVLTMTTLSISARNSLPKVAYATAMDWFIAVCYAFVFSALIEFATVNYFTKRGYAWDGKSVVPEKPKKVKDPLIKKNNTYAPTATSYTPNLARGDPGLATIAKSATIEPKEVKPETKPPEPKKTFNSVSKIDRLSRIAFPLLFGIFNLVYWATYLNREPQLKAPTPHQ
T1 sequence (P63138 26-474): as the sequence (P63138 26-474) above

O=c1cc(-c2ccc(O)c(O)c2)oc2cc(O)cc(O)c12 [luteolin, 2-(3,4-Dihydroxyphenyl)-5,7-dihydroxy-4-chromenone]
IC50 [1]: 10.8 ± 4.46 µM | IC50 [2]: 25.4 ± 9 µM
